# Laboratory results taken from US10118947B2, “Modulation of structured polypeptide specificity” (BICYCLE THERAPEUTICS LIMITED, priority 2013, dated 2018).
# Numbered stars: 1 amine (or outer) side, 2 acyl side, 3 side chain; on linkers, the order of the positions; unused ones are H or OH. Bridge positions count the residues as written; N and C are the ends. Square brackets hold non-standard residues; d marks the D form. Peptide text beside a SMILES is read from it. Pro(4R-Bn) = O=C(O)[C@@H]1C[C@@H](Cc2ccccc2)CN1; Dip = N[C@H](C(=O)O)C(c1ccccc1)c1ccccc1; TBMB = c1c(C[*:1])cc(C[*:3])cc1C[*:2]; Cha = N[C@@H](CC1CCCCC1)C(=O)O; Dpg = CCCC(N)(CCC)C(=O)O; Aze = O=C(O)[C@@H]1CCN1
# Test system: not listed separately
# Assay: Plasma stability profiling Method #1 (MALDI-TOF, 35% plasma), rat plasma
# Assay type: in vitro ADME
# Conditions: Table 12; method #1
# Method: A rapid plasma stability profiling assay was developed that employed mass spectrometric detection (MALDI-TOF, Voyager DE, Applied Biosystems) of the parent mass, until the time when the parent peptide mass was no longer observable. Specifically, 200 uM of peptide was incubated in the presence of 35% rat or human plasma (Sera labs, using citrate as anticoagulant) at 37 deg C., which was supplemented with 1×PBS (derived from a 10×PBS Stock, Sigma). At various time points (i.e. t=0, 3, 24 hrs, henceafter daily up to 10 days), 2 uL of sample was added to 18 uL of 30 mM ammonium bicarbonate in a 1:1 mixture of acetonitrile:H2O. Samples were frozen at −80 deg C. until the time of analysis. For mass spectrometric analysis that determines the approximate detection window of the peptide, the acetonitrile:H2O-diluted sample of a given time point was spotted directly (0.7 uL) onto the MALDI plate. Matrix (alpha-cyanocinnamic acid, Sigma, prepared as a saturated solution in 1:1 acetonitrile:water containing 0.1% trifluoroacetic acid) was layered over the sample (1 uL). At a similar laser intensity setting on the MALDI TOF, the time could then be determined until parent peptide was no longer detectable. It should be noted that this is a qualitative assay serves to detect relative changes in plasma stability.
row,SMILES,"Observable in rat plasma, for days"
1,"CC(=O)N[C@H]1CSCc2cc3cc(c2)CSC[C@H](NC(=O)[C@H](CCCNC(=N)N)NC(=O)[C@H](C)NC(=O)[C@@H]2CCCN2C(=O)[C@H](C(c2ccccc2)c2ccccc2)NC(=O)[C@H](CO)NC1=O)C(=O)N[C@@H](CC(C)C)C(=O)N[C@@H](Cc1c[nH]cn1)C(=O)N[C@@H](CCC(N)=O)C(=O)N[C@@H](CC(=O)O)C(=O)N[C@@H](CC(C)C)C(=O)N[C@H](C(N)=O)CSC3 [Ac-(06-34-18) 3,3-DPA2] (Ac-CS[Dip]PARCLHQDLC-NH2; linker 1-7-13 via TBMB)",2 days
2,CC(=O)N[C@H]1CSCc2cc3cc(c2)CSC[C@H](NC(=O)[C@H](CCCNC(=N)N)NC(=O)[C@H](C)NC(=O)[C@@H]2CCCN2C(=O)[C@H](CC2CCCCC2)NC(=O)[C@H](CO)NC1=O)C(=O)N[C@@H](CC(C)C)C(=O)N[C@@H](Cc1c[nH]cn1)C(=O)N[C@@H](CCC(N)=O)C(=O)N[C@@H](CC(=O)O)C(=O)N[C@@H](CC(C)C)C(=O)N[C@H](C(N)=O)CSC3 [Ac-(06-34-18) Cha2] (Ac-CS[Cha]PARCLHQDLC-NH2; linker 1-7-13 via TBMB),2 days

# Same assay, conditions: Table 13; method #1
row,SMILES,"Observable in rat plasma, for days"
1,CC(=O)N[C@H]1CSCc2cc3cc(c2)CSC[C@H](NC(=O)[C@H](CCCNC(=N)N)NC(=O)[C@H](C)NC(=O)[C@@H]2C[C@@H](Cc4ccccc4)CN2C(=O)[C@H](Cc2c[nH]c4ccccc24)NC(=O)[C@H](CO)NC1=O)C(=O)N[C@@H](CC(C)C)C(=O)N[C@@H](Cc1c[nH]cn1)C(=O)N[C@@H](CCC(N)=O)C(=O)N[C@@H](CC(=O)O)C(=O)N[C@@H](CC(C)C)C(=O)N[C@H](C(N)=O)CSC3 [Ac-(06-34-18) 4Benzyl Pro3] (Ac-CSW[Pro(4R-Bn)]ARCLHQDLC-NH2; linker 1-7-13 via TBMB),2 days
2,CC(=O)N[C@H]1CSCc2cc3cc(c2)CSC[C@H](NC(=O)[C@H](CCCNC(=N)N)NC(=O)[C@H](C)NC(=O)[C@@H]2CCN2C(=O)[C@H](Cc2c[nH]c4ccccc24)NC(=O)[C@H](CO)NC1=O)C(=O)N[C@@H](CC(C)C)C(=O)N[C@@H](Cc1c[nH]cn1)C(=O)N[C@@H](CCC(N)=O)C(=O)N[C@@H](CC(=O)O)C(=O)N[C@@H](CC(C)C)C(=O)N[C@H](C(N)=O)CSC3 [Ac-(06-34-18) Aze3] (Ac-CSW[Aze]ARCLHQDLC-NH2; linker 1-7-13 via TBMB),2 days

# Same assay, conditions: Table 14; method #1
row,SMILES,"Observable in rat plasma, for days"
1,CCCC1(CCC)NC(=O)[C@@H](NC(C)=O)CSCc2cc3cc(c2)CSC[C@H](NC(=O)[C@H](CCCNC(=N)N)NC(=O)[C@H](C)NC(=O)[C@@H]2CCCN2C(=O)[C@H](Cc2c[nH]c4ccccc24)NC1=O)C(=O)N[C@@H](CC(C)C)C(=O)N[C@@H](Cc1c[nH]cn1)C(=O)N[C@@H](CCC(N)=O)C(=O)N[C@@H](CC(=O)O)C(=O)N[C@@H](CC(C)C)C(=O)N[C@H](C(N)=O)CSC3 [Ac-(06-34-18) Dpg1] (Ac-C[Dpg]WPARCLHQDLC-NH2; linker 1-7-13 via TBMB),2 days

# Biological target: T1, human plasma Kallikrein (Homo sapiens, UniProt P03952)
# T1 construct: purchased Stratech, UK
# Assay: Functional enzyme inhibition assay with fluorogenic substrate Z-PheArg-AMC, human plasma Kallikrein
# Assay type: biochemical
# Conditions: not given
# In short: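 Human plasma kallikrein at 26.5 pM was preincubated 15 minutes with test peptide in Tris/NaCl/MgCl2/CaCl2/BSA buffer pH7.4 at 25° C, then Z-PheArg-AMC added to 100 μM final in 4% DMSO.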
# T1 sequence (P03952 20-638): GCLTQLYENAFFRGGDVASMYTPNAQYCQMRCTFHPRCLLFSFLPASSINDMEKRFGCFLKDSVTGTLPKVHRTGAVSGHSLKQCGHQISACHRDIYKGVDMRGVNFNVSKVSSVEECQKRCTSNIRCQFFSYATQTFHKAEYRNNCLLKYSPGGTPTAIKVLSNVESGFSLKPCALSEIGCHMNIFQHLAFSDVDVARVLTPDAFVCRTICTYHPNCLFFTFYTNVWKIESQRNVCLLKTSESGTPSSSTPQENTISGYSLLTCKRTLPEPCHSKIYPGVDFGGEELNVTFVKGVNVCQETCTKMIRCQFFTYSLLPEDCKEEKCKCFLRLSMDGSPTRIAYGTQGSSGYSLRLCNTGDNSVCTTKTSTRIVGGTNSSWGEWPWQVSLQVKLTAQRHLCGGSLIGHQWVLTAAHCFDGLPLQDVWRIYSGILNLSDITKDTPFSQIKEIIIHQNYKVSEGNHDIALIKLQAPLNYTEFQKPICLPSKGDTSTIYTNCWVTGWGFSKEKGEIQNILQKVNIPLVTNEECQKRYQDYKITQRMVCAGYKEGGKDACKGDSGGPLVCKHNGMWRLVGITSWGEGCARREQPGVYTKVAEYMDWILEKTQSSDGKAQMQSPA
row,SMILES,affinity surpassing that of wildtype by a factor
1,CC(=O)N[C@H]1CSCc2cc3cc(c2)CSC[C@H](NC(=O)[C@H](CCCNC(=N)N)NC(=O)[C@H](C)NC(=O)[C@@H]2CCN2C(=O)[C@H](Cc2c[nH]c4ccccc24)NC(=O)[C@H](CO)NC1=O)C(=O)N[C@@H](CC(C)C)C(=O)N[C@@H](Cc1c[nH]cn1)C(=O)N[C@@H](CCC(N)=O)C(=O)N[C@@H](CC(=O)O)C(=O)N[C@@H](CC(C)C)C(=O)N[C@H](C(N)=O)CSC3 [Ac-(06-34-18) Aze3] (Ac-CSW[Aze]ARCLHQDLC-NH2; linker 1-7-13 via TBMB),3

# Same assay, conditions: Table 14; read-out: Ki (nM) (human kallikrein)
row,SMILES,Ki
1,CCCC1(CCC)NC(=O)[C@@H](NC(C)=O)CSCc2cc3cc(c2)CSC[C@H](NC(=O)[C@H](CCCNC(=N)N)NC(=O)[C@H](C)NC(=O)[C@@H]2CCCN2C(=O)[C@H](Cc2c[nH]c4ccccc24)NC1=O)C(=O)N[C@@H](CC(C)C)C(=O)N[C@@H](Cc1c[nH]cn1)C(=O)N[C@@H](CCC(N)=O)C(=O)N[C@@H](CC(=O)O)C(=O)N[C@@H](CC(C)C)C(=O)N[C@H](C(N)=O)CSC3 [Ac-(06-34-18) Dpg1] (Ac-C[Dpg]WPARCLHQDLC-NH2; linker 1-7-13 via TBMB),1.09 nM

# Same assay, conditions: read-out: Ki / affinity to human Kallikrein
row,SMILES,Ki
1,CCCC1(CCC)NC(=O)[C@@H](NC(C)=O)CSCc2cc3cc(c2)CSC[C@H](NC(=O)[C@H](CCCNC(=N)N)NC(=O)[C@H](C)NC(=O)[C@@H]2CCCN2C(=O)[C@H](Cc2c[nH]c4ccccc24)NC1=O)C(=O)N[C@@H](CC(C)C)C(=O)N[C@@H](Cc1c[nH]cn1)C(=O)N[C@@H](CCC(N)=O)C(=O)N[C@@H](CC(=O)O)C(=O)N[C@@H](CC(C)C)C(=O)N[C@H](C(N)=O)CSC3 [Ac-(06-34-18) Dpg1] (Ac-C[Dpg]WPARCLHQDLC-NH2; linker 1-7-13 via TBMB),1.1 nM
